Values quoted from earlier work in US10214591B1, “Monoclonal antibody to human line-1 ORF2 protein and method for early detection of transforming cells in pre-neoplastic tissues of a human subject” (Alienor Farma, priority 2015, dated 2019).

How the values were obtained:
[1] = system: human tumorigenic cells; details: xenografted mice
[2] = system: tumorigenic cell lines

Row | Structure (SMILES) | effect on tumor progression [1] | effect on proliferation and differentiation of cancer cells [2]
1 | O=C1Nc2ccc(Cl)cc2[C@@](C#CC2CC2)(C(F)(F)F)O1 [efavirenz, (S)-6-Chloro-4-(cyclopropylethynyl)-1,4-dihydro-4-(trifluoromethyl)-2H-3,1 benzoxazin-2-one] | arrest, or a significant reduction, of tumor progression | reduced proliferation and enhanced differentiation
2 | Cc1ccnc2c1NC(=O)c1cccnc1N2C1CC1 [nevirapine] | – | reduced proliferation and enhanced differentiation
